In US8389677B2, “Antioxidant polypeptide and a process for isolation and purification of the same” (Adichunchanagiri Biotechnology and Cancer Research Institute, priority 2010, dated 2013):

Legend:
lipid peroxidation = assay: Thio Barbituric Acid Reactive Substance (TBARS) antioxidant assay; assay type: biochemical; settings: concentration 400 μM
Description: (§1) ATE containing 2 mg protein was loaded on to the Sephadex G-50 column (VT=240 ml, VO=80 ml) and eluted with 0.1M Tris HCl, pH −7.4 containing 0.1 M NaCl and flow rate was 1.7 ml/5 min, Fractions were monitored at 280 nm. Two peaks were obtained namely Peak I and Peak II. Peak II depicts the polypeptide of the present invention (Arishinin) as shown in FIG. 1 and the Gel filtration chromatography profile of Aqueous Turmeric Extract. Peak II was pooled, concentrated and dialyzed against double distilled water at 4° C. using 2 KDa cut off dialysis membrane for 74 hrs. […] The antioxidant activity was done by TBARS and Hydroxy radical scavenging assay compared to standard antioxidant like BHA, Curcumin and α-tocopherol as positive controls. Cell viability test by Tryphan blue exclusion method was done to test the toxicity of Arishinin.
(§2) The quantification of water-soluble antioxidant polypeptide Arishinin, isolated by the process described in Examples 1 to 4 (as depicted in Table 1 above) was determined by the following methods. Protein estimation was done by Bradford's method (Bradford, M. M., 1976, Analytical Biochem., […]) with an absorption maximum at 595 nm and results shown in Table 1. The antioxidant activity of Arishinin was evaluated by Thio Barbituric Acid Reactive Substance (TBARS) (Shimasaki, H., et al., 1984, Biochem. Biophys. Acta, 792:123-129) and Deoxyribose method/Hydroxyl radical scavenging assay (Halliwell, B., et al., 1981, Methods of Biochemical Sciences, 33:59-90) with absorption maximum at 535 nm by using BHA, alpha tocopherol and Curcumin as standard antioxidants.

hydroxyl radical = assay: Deoxyribose method / Hydroxyl radical scavenging assay; assay type: biochemical; settings: concentration 400 μM
Description: as §1, §2

mice = settings: at more than 0.1% dose; cited from earlier work

Compound | INHIBITION (%) TBARS (lipid peroxidation) | INHIBITION (%) Hydroxyl radical (hydroxyl radical) | carcinogenicity (fore-stomach tumour in mice) (mice)
COc1ccc(O)c(C(C)(C)C)c1 [BHA, Butylated Hydroxyl Anisole] | 84 ± 1.5% | 80 ± 1% | carcinogenic
Cc1cc(C(C)(C)C)c(O)c(C(C)(C)C)c1 [BHT, Butylated Hydroxy Toluene] |  |  | carcinogenic
COc1cc(/C=C/C(=O)CC(=O)/C=C/c2ccc(O)c(OC)c2)ccc1O [Curcumin] | 72 ± 1.5% | 68 ± 3% | 
Cc1c(C)c2c(c(C)c1O)CC[C@@](C)(CCC[C@H](C)CCC[C@H](C)CCCC(C)C)O2 [α-tocopherol] | 92 ± 1% | 88 ± 2% | 
